# Results as given in patent US4728650A, “3,4-dihydrobenzopyran derivatives and medicinal uses thereof” (Kuraray Co., Ltd., priority 1985, dated 1988).
# Counter-ions that a name gives are not always drawn.
# What was measured:
# [1] = Stress ulcer (water immersion stress) in mice; type: in vivo, mice (ddK strain, male)
# Experimental: Male mice of ddK strain (body weights, 18-20 g) were placed in a stress cage in groups of 6 animals and immersed down to the level of the xiphoid process in a water bath at 22±1° C. to give a stress. Five hours later the mice were raised from the water bath and the stomach was removed under ether anesthesia. Into the stomach was infused 1.2 ml of a 10% aqueous solution of formaldehyde and, then, the stomach was immersed in a 10% aqueous solution of formaldehyde for 10 minutes for fixation of the tissue. After fixation, an incision was made along the greater curvature for observing ulcers which had appeared in the glandular portion of the stomach. The degree of ulceration was classified according to the following ulcer index scale and the % inhibition of ulcer was estimated.
# 2: Hemorrhage and erosion
# 3: Severe hemorrhage and erosion
# Each test compound was orally administered, as suspended in a gum arabic solution in concentration of 5%, to mice 10 minutes before stress loading.
# [2] = Expectorant action: tracheal secretion of fluorescein sodium in rats; type: in vivo, Wistar rats (male); details: 50 mg/kg oral
# Experimental: Male Wistar rats (body weights, 280-320 g) were used in groups of 7 animals. Each test compound was orally administered in dose of 50 mg/kg body weight to rats. Immediately after administration, 0.3 ml/100 g (body weight of rat) of a 1% aqueous solution of fluorescein sodium was injected into the caudal vein. One hour after administration of the test compound, pentobarbital sodium 100 mg/kg (body weight of rat) was injected intraperitoneally so that deep anesthesia might cause the rat to die. Then, the trachea was exposed and an incision was made in the trachea. A sonde was inserted thereinto and ligation was made. To the sonde was connected a syringe containing 10 ml of a 5% solution of sodium hydrogen carbonate kept at 37° C. and 4 ml of the solution of sodium hydrogen carbonate was injected into the lung. After 5 minutes, the fluid in the lung was removed. After this procedure of injection and removal was repeated three times, the fluid removed from the lung was filtered and the filtrate was made up with water to make 20 ml. The intensity of fluroescence was determined at the excitation wave length of 491 nm and the fluorescence wave length of 510 nm using a spectrophotometer (HITACHI model 650-10, Hitachi, Ltd.). The amount of fluorescein sodium secreted into the trachea was estimated from the intensity of fluorescence. Each test compound was administered as suspended in a gum arabic solution in concentration of 5%.
# [3] = Hydrochloric acid-ethanol-induced ulcer in rats; type: in vivo, Wistar rats (male)
# Experimental: Male Wistar rats (body weights, 170-210 g) were used in groups of 6 to 8 animals. Indomethacin, 20 mg/kg body weight, was injected subcutaneously to rats which had been deprived of food for 24 hours. After 7 hours, the stomach was excised under ether anesthesia. A 10% aqueous solution of formaldehyde was infused into the stomach until the stomach was inflated and, then, the stomach was immersed in a 10% aqueous solution of formaldehyde for 10 minutes for fixation of the tissue. After fixation, an incision was made along the greater curvature and the length of ulcers occurring in the glandular portion of the stomach was measured. The total length of ulcers occurring in a rat was taken as an ulcer index. Each test compound was orally administered, as suspended in a gum arabic solution in concentration of 5%, to rats 10 minutes before subcutaneous injection of indomethacin. Male Wistar rats (body weights, 160-190 g) were used in groups of 6 to 8 animals. One milliliter of a 60% aqueous solution of ethanol containing 150 mM hydrochloric acid was administered orally to rats which had been deprived of food for 24 hours. After one hour, the stomach was excised under ether anesthesia. In a manner similar to that described in study for indomethacin-induced ulcer, the ulcer index was determined. Each test compound was orally administered, as suspended in a gum arabic solution in concentration of 5%, to rats 1 hour before administration of hydrochloric acid-ethanol.
# [4] = Pyloric ligation-induced ulcer (Shay ulcer) in rats; type: in vivo, Wistar rats (male); details: Table 2, 200 mg/kg i.d.
# Experimental: Male Wistar rats (body weights, 180-200 g) were used in groups of 7 animals. After 48-hour fasting, laparotomy was performed under ether anesthesia and the pylorus was ligated with a suture. After 13 hours, the stomach was isolated under ether anesthesia and gastric juice was collected. The gastric juice was centrifuged at 3,000 r.p.m. for 10 minutes and the volume and pH value of gastric juice were determined. The pH value was determined by using pH paper. After collection of gastric juice, a 10% aqueous solution of formaldehyde was infused into the stomach until the stomach was inflated. Then, the stomach was immersed in a 10% aqueous solution of formaldehyde for 10 minutes for fixation of the tissue. After fixation, an incision was made along the greater curvature for observing ulcers which had developed in the glandular portion of the stomach. The degree of ulcer was classified according to the following ulcer index scale.
# 2: 1-5 small ulcers (<3 mm in diameter)
# 3: Six or more small ulcers or one large ulcer (>3 mm in diameter)
# 4: Two or more large ulcers
# Each test compound was administered, as suspended in a gum arabic solution in concentration of 5%, into the duodenum immediately after pyloric ligation.
# [5] = Indomethacin-induced ulcer in rats; type: in vivo, Wistar rats (male); details: Table 3, 200 mg/kg p.o.
# Experimental: Male Wistar rats (body weights, 170-210 g) were used in groups of 6 to 8 animals. Indomethacin, 20 mg/kg body weight, was injected subcutaneously to rats which had been deprived of food for 24 hours. After 7 hours, the stomach was excised under ether anesthesia. A 10% aqueous solution of formaldehyde was infused into the stomach until the stomach was inflated and, then, the stomach was immersed in a 10% aqueous solution of formaldehyde for 10 minutes for fixation of the tissue. After fixation, an incision was made along the greater curvature and the length of ulcers occurring in the glandular portion of the stomach was measured. The total length of ulcers occurring in a rat was taken as an ulcer index. Each test compound was orally administered, as suspended in a gum arabic solution in concentration of 5%, to rats 10 minutes before subcutaneous injection of indomethacin. The doses of test compounds and the ulcer indices for treated and untreated rats are shown in Table 3 for purposes of comparison. The % inhibition of ulcer by each test compound as estimated from the ulcer index is also presented in the same table.
smiles,measurement,setting,value
CN1[C@@H]2CC[C@H]1C[C@@H](OC(=O)C(CO)c1ccccc1)C2 (stereo partly shown) [Atropine sulfate],% Inhibition of ulcer,"[1]; Table 1, 30 mg/kg p.o.",80.99%
same,Ulcer index (mean ± S.E.),"[1]; Table 1, 30 mg/kg p.o., control 2.63 ± 0.18",0.50 ± 0.29 mm
"COc1c(C)c(C)c2c(c1C)CCC(C)(CCN1CCN(C(=O)c3ccccc3)CC1)O2 (stereo not shown) [Compound (32), 1-Benzoyl-4-[2-(3,4-dihydro-6-methoxy-2,5,7,8-tetramethyl-2H-benzopyran-2-yl)ethyl]piperazine]",Secretory amount (mean ± S.E.),"[2]; Table 13, control 5.30 ± 0.40",5.43 ± 0.72 μg/100 g (body weight of rat)/
"COc1ccc(CN2CCN(C(=O)CC3(C)CCc4cc(Cl)ccc4O3)CC2)c(OC)c1OC (stereo not shown) [Compound (29), 1-[(6-Chloro-3,4-dihydro-2-methyl-2H-benzopyran-2-yl)acetyl]-4-(2,3,4-trimethoxybenzyl)piperazine]",Secretory amount (mean ± S.E.),"[2]; Table 13, control 5.30 ± 0.40",5.57 ± 0.36 μg/100 g (body weight of rat)/
"COc1ccc(C(=O)N2CCN(CCC3(C)CCc4cc(Cl)ccc4O3)CC2)cc1 (stereo not shown) [Compound (26), 1-[2-(6-Chloro-3,4-dihydro-2-methyl-2H-benzopyran-2-yl)ethyl]-4-(4-methoxybenzoyl)piperazine]",Secretory amount (mean ± S.E.),"[2]; Table 15, control 5.20 ± 0.78",9.61 ± 0.83 μg/100 g (body weight of rat)/
"COc1ccc(CN2CCN(CCC3(C)CCc4c(C)c(OC)c(C)c(C)c4O3)CC2)c(OC)c1OC (stereo not shown) [Compound (31), 1-[2-(3,4-Dihydro-6-methoxy-2,5,7,8-tetramethyl-2H-benzopyran-2-yl)ethyl]-4-(2,3,4-trimethoxybenzyl)piperazine]",inhibition in vivo at 50 mg/kg,"[3]; Rattus norvegicus, po, 1 h, Table 11, 50 mg/kg p.o.",100%
same,Ulcer index (mean ± S.E.),"[3]; Table 11, 50 mg/kg p.o., control 6.12 ± 1.76",0.00 ± 0.00 mm
same,Secretory amount (mean ± S.E.),"[2]; Table 16, control 6.455 ± 0.766",7.529 ± 0.751 μg/100 g (body weight of rat)/
"COc1c(C)c(C)c2c(c1C)CCC(C)(CCN1CCN(C(=O)CCC=C(C)CCC=C(C)CCC=C(C)C)CC1)O2 (stereo not shown) [Compound (24), 1-[2-(3,4-Dihydro-6-methoxy-2,5,7,8-tetramethyl-2H-benzopyran-2-yl)ethyl]-4-(5,9,13-trimethyl-4,8,12-tetradecatrienoyl)piperazine]",Secretory amount (mean ± S.E.),"[2]; Table 14, control 1.60 ± 0.18",2.74 ± 0.22 μg/100 g (body weight of rat)/
"COc1c(C)c(C)c2c(c1C)CCC(C)(CCN1CCN(C(=O)c3ccc(N(C)C)cc3)CC1)O2 (stereo not shown) [Compound (20), 1-[2-(3,4-Dihydro-6-methoxy-2,5,7,8-tetramethyl-2H-benzopyran-2-yl)ethyl]-4-(4-dimethylaminobenzoyl)piperazine]",Secretory amount (mean ± S.E.),"[2]; Table 15, control 5.20 ± 0.78",8.72 ± 1.45 μg/100 g (body weight of rat)/
"COc1c(C)c(C)c2c(c1C)CCC(C)(CCN1CCN(C(=O)c3ccncc3)CC1)O2 (stereo not shown) [Compound (23), 1-[2-(3,4-Dihydro-6-methoxy-2,5,7,8-tetramethyl-2H-benzopyran-2-yl)ethyl]-4-(4-pyridylcarbonyl)piperazine]",Secretory amount (mean ± S.E.),"[2]; Table 15, control 5.20 ± 0.78",8.16 ± 1.03 μg/100 g (body weight of rat)/
"CNC(=NC#N)NCCSCc1nc[nH]c1C [Cimetidine, N""-cyano-N-methyl-N'-[2-[(5-methyl-1H-imidazol-4-yl)methylthio]ethyl]guanidine, reference compound]",% Inhibition of ulcer,"[1]; mouse, in vivo, po, 200 mg/kg",49.43%
same,Ulcer index (mean ± S.E.),"[1]; mouse, in vivo, po, 200 mg/kg",1.33 ± 0.21 mm
same,pH value of gastric juice,[4]; control 1.77 ± 0.54,2.29 ± 0.88
same,Volume of gastric juice,[4]; control 5.09 ± 0.40,5.13 ± 0.99 ml/100 g body weight
same,Ulcer index (mean ± S.E.),"[4]; scale 0-5, control 3.86 ± 0.40",1.71 ± 0.18
same,% Inhibition of ulcer,[5],86.97%
same,Ulcer index (mean ± S.E.),[5]; control 10.36 ± 2.07,1.35 ± 0.48 mm
same,inhibition in vivo at 200 mg/kg,"[3]; Rattus norvegicus, po, 1 h, Table 7, 200 mg/kg p.o.",77.9%
same,inhibition in vivo at 200 mg/kg,"[3]; Rattus norvegicus, po, 1 h, Table 12, 200 mg/kg p.o.",78%
same,Ulcer index (mean ± S.E.),"[3]; Table 4, 200 mg/kg p.o., control 7.36 ± 1.23",1.63 ± 0.49 mm
same,Ulcer index (mean ± S.E.),"[3]; Table 12, 200 mg/kg p.o., control 9.93 ± 0.91",2.18 ± 1.04 mm
"COc1ccc(C(=O)N2CCN(CCCC3(C)CCc4c(C)c(OC)c(C)c(C)c4O3)CC2)cc1 (stereo not shown) [Compound (27), 1-[3-(3,4-Dihydro-6-methoxy-2,5,7,8-tetramethyl-2H-benzopyran-2-yl)propyl]-4-(4-methoxybenzoyl)piperazine]",Secretory amount (mean ± S.E.),"[2]; Table 15, control 5.20 ± 0.78",6.45 ± 0.72 μg/100 g (body weight of rat)/
"COc1c(C)c(C)c2c(c1C)CCC(C)(CCN1CCN(C(=O)c3ccc(Br)cc3)CC1)O2 (stereo not shown) [Compound (22), 1-[2-(3,4-Dihydro-6-methoxy-2,5,7,8-tetramethyl-2H-benzopyran-2-yl)ethyl]-4-(4-bromobenzoyl)piperazine]",Secretory amount (mean ± S.E.),"[2]; Table 15, control 5.20 ± 0.78",6.26 ± 0.32 μg/100 g (body weight of rat)/
"COc1c(C)c(C)c2c(c1C)CCC(C)(CCN1CCN(C(=O)c3ccc([N+](=O)[O-])cc3)CC1)O2 (stereo not shown) [Compound (21), 1-[2-(3,4-Dihydro-6-methoxy-2,5,7,8-tetramethyl-2H-benzopyran-2-yl)ethyl]-4-(4-nitrobenzoyl)piperazine]",Secretory amount (mean ± S.E.),"[2]; Table 15, control 5.20 ± 0.78",5.89 ± 0.40 μg/100 g (body weight of rat)/
